ChEMBL document CHEMBL1201862, “PubChem BioAssay data set” (2004)
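All cell lines were grown in 96-well plates and treated with compound for 48 hours. GI50 marks 50% less growth.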 Activity calls are given as the source filed them. Rule as the data show it: active = GI50 up to about 1.1 µM and inactive = higher.

Key:
Assay in all cases: NCI anticancer screen, dose series, 48 h
786-0 = test system: 786-0
A498 = test system: A498
A549 = test system: A549
ACHN = test system: ACHN
BT-549 = test system: BT-549
CAKI-1 = test system: CAKI-1
CCRF-CEM = test system: CCRF-CEM
COLO 205 = test system: COLO 205
DU-145 = test system: DU-145
EKVX = test system: EKVX
HCC 2998 = test system: HCC 2998
HCT-116 = test system: HCT-116
HCT-15 = test system: HCT-15
HOP-62 = test system: HOP-62
HOP-92 = test system: HOP-92
HT-29 = test system: HT-29
IGROV-1 = test system: IGROV-1
K562 = test system: K562
KM12 = test system: KM12
LOX IMVI = test system: LOX IMVI
M14 = test system: M14
MCF7 = test system: MCF7
MDA-MB-231 = test system: MDA-MB-231
MDA-MB-435 = test system: MDA-MB-435
MDA-N = test system: MDA-N
MOLT-4 = test system: MOLT-4
Malme-3M = test system: Malme-3M
NCI-H226 = test system: NCI-H226
NCI-H23 = test system: NCI-H23
NCI-H460 = test system: NCI-H460
NCI-H522 = test system: NCI-H522
NCI/ADR-RES = test system: NCI/ADR-RES
OVCAR-3 = test system: OVCAR-3
OVCAR-4 = test system: OVCAR-4
OVCAR-5 = test system: OVCAR-5
OVCAR-8 = test system: OVCAR-8
PC-3 = test system: PC-3
RPMI-8226 = test system: RPMI-8226
RXF 393 = test system: RXF 393
SF-268 = test system: SF-268
SF-295 = test system: SF-295
SF-539 = test system: SF-539
SK-MEL-28 = test system: SK-MEL-28
SK-MEL-2 = test system: SK-MEL-2
SK-MEL-5 = test system: SK-MEL-5
SK-OV-3 = test system: SK-OV-3
SN12C = test system: SN12C
SNB-19 = test system: SNB-19
SNB-75 = test system: SNB-75
SR = test system: SR
SW-620 = test system: SW-620
T47D = test system: T47D
TK-10 = test system: TK-10
U-251 = test system: U-251
UACC-257 = test system: UACC-257
UACC-62 = test system: UACC-62
UO-31 = test system: UO-31

Compound: Cc1ccc(S(=O)(=O)[C@@H](Cl)[C@H]2N=C(Cl)NN=C2c2ccccc2)cc1
- GI50 (786-0): 26.4 µM (inactive)
- GI50 (A498): 15.5 µM (inactive)
- GI50 (A549): 34.1 µM (inactive)
- GI50 (ACHN): 33.7 µM (inactive)
- GI50 (BT-549): 23.9 µM (inactive)
- GI50 (CAKI-1): 41.9 µM (inactive)
- GI50 (CCRF-CEM): 20.3 µM (inactive)
- GI50 (COLO 205): 26.9 µM (inactive)
- GI50 (DU-145): 23.2 µM (inactive)
- GI50 (EKVX): 37.1 µM (inactive)
- GI50 (HCC 2998): 33.8 µM (inactive)
- GI50 (HCT-116): 25.1 µM (inactive)
- GI50 (HCT-15): 22.2 µM
- GI50 (HOP-62): 20 µM (inactive)
- GI50 (HOP-92): 23 µM (inactive)
- GI50 (HT-29): 33.5 µM (inactive)
- GI50 (IGROV-1): 21.8 µM (inactive)
- GI50 (K562): 29.5 µM (inactive)
- GI50 (KM12): 22.6 µM (inactive)
- GI50 (LOX IMVI): 19.1 µM (inactive)
- GI50 (M14): 21.2 µM (inactive)
- GI50 (MCF7): 26.9 µM (inactive)
- GI50 (MDA-MB-231): 20.1 µM (inactive)
- GI50 (MDA-MB-435): 22.1 µM (inactive)
- GI50 (MDA-N): 26.1 µM (inactive)
- GI50 (MOLT-4): 20.6 µM (inactive)
- GI50 (Malme-3M): 20.7 µM (inactive)
- GI50 (NCI-H226): 26.8 µM (inactive)
- GI50 (NCI-H23): 20.6 µM (inactive)
- GI50 (NCI-H460): 37.1 µM (inactive)
- GI50 (NCI-H522): 15.9 µM (inactive)
- GI50 (NCI/ADR-RES): 21.4 µM (inactive)
- GI50 (OVCAR-3): 14.7 µM (inactive)
- GI50 (OVCAR-4): 13.9 µM (inactive)
- GI50 (OVCAR-5): 85.9 µM (inactive)
- GI50 (OVCAR-8): 21.1 µM (inactive)
- GI50 (PC-3): 16.7 µM (inactive)
- GI50 (RPMI-8226): 27.6 µM (inactive)
- GI50 (RXF 393): 18.6 µM (inactive)
- GI50 (SF-268): 18.3 µM (inactive)
- GI50 (SF-295): 41.4 µM (inactive)
- GI50 (SF-539): 30.1 µM (inactive)
- GI50 (SK-MEL-28): 19.4 µM (inactive)
- GI50 (SK-MEL-2): 14.8 µM (inactive)
- GI50 (SK-MEL-5): 15.4 µM (inactive)
- GI50 (SK-OV-3): 32.6 µM (inactive)
- GI50 (SN12C): 21.7 µM (inactive)
- GI50 (SNB-19): 37.8 µM (inactive)
- GI50 (SNB-75): 27.9 µM (inactive)
- GI50 (SR): 27.2 µM (inactive)
- GI50 (SW-620): 17.2 µM (inactive)
- GI50 (T47D): 28.8 µM (inactive)
- GI50 (TK-10): 41.8 µM (inactive)
- GI50 (U-251): 21.5 µM (inactive)
- GI50 (UACC-257): 20.6 µM (inactive)
- GI50 (UACC-62): 15.1 µM (inactive)
- GI50 (UO-31): 18.1 µM (inactive)

Compound: Cc1sc2nc3n(c(=O)c2c1C)N=CN(c1ccccc1)C3
- GI50 (786-0): 15.8 µM (inactive)
- GI50 (A498): > 100 µM (inactive)
- GI50 (A549): > 100 µM (inactive)
- GI50 (ACHN): 59.3 µM (inactive)
- GI50 (BT-549): > 100 µM (inactive)
- GI50 (CAKI-1): 36 µM (inactive)
- GI50 (CCRF-CEM): > 100 µM (inactive)
- GI50 (COLO 205): > 100 µM (inactive)
- GI50 (DU-145): > 100 µM (inactive)
- GI50 (EKVX): > 100 µM (inactive)
- GI50 (HCC 2998): 60.5 µM (inactive)
- GI50 (HCT-116): > 100 µM (inactive)
- GI50 (HCT-15): > 100 µM
- GI50 (HOP-62): 20.4 µM (inactive)
- GI50 (HOP-92): 23.7 µM (inactive)
- GI50 (HT-29): > 100 µM (inactive)
- GI50 (IGROV-1): > 100 µM (inactive)
- GI50 (K562): > 100 µM (inactive)
- GI50 (KM12): > 100 µM (inactive)
- GI50 (LOX IMVI): > 100 µM (inactive)
- GI50 (M14): > 100 µM (inactive)
- GI50 (MCF7): > 100 µM (inactive)
- GI50 (MDA-MB-231): 68.1 µM (inactive)
- GI50 (MDA-MB-435): > 100 µM (inactive)
- GI50 (MDA-N): > 100 µM (inactive)
- GI50 (MOLT-4): > 100 µM (inactive)
- GI50 (Malme-3M): 32 µM (inactive)
- GI50 (NCI-H226): > 100 µM (inactive)
- GI50 (NCI-H23): > 100 µM (inactive)
- GI50 (NCI-H460): > 100 µM (inactive)
- GI50 (NCI-H522): 38.5 µM (inactive)
- GI50 (NCI/ADR-RES): > 100 µM (inactive)
- GI50 (OVCAR-3): 19.4 µM (inactive)
- GI50 (OVCAR-4): 30.1 µM (inactive)
- GI50 (OVCAR-5): > 100 µM (inactive)
- GI50 (OVCAR-8): 68.9 µM (inactive)
- GI50 (PC-3): > 100 µM (inactive)
- GI50 (RPMI-8226): > 100 µM (inactive)
- GI50 (RXF 393): 37.1 µM (inactive)
- GI50 (SF-268): 23.4 µM (inactive)
- GI50 (SF-295): 84.9 µM (inactive)
- GI50 (SK-MEL-28): > 100 µM (inactive)
- GI50 (SK-MEL-2): > 100 µM (inactive)
- GI50 (SK-MEL-5): > 100 µM (inactive)
- GI50 (SK-OV-3): > 100 µM (inactive)
- GI50 (SN12C): > 100 µM (inactive)
- GI50 (SNB-19): 35.5 µM (inactive)
- GI50 (SNB-75): 35.9 µM (inactive)
- GI50 (SR): > 100 µM (inactive)
- GI50 (SW-620): > 100 µM (inactive)
- GI50 (T47D): 79.8 µM (inactive)
- GI50 (TK-10): > 100 µM (inactive)
- GI50 (U-251): 52.4 µM (inactive)
- GI50 (UACC-257): > 100 µM (inactive)
- GI50 (UACC-62): > 100 µM (inactive)
- GI50 (UO-31): > 100 µM (inactive)
